Measurements: patent US20250295674A1, “NEUROACTIVE STEROIDS FOR TREATMENT OF CNS-RELATED DISORDERS” (Sage Therapeutics, Inc., priority 2022, published 2025)

Tests used:
[1] = system: patients with major depressive disorder (MDD); settings: TEAEs: nausea/vomiting, diarrhoea, abdominal pain, dyspepsia, anorexia, dry mouth; cited from earlier work
[2] = system: adults with MDD; assay: Phase 3 CORAL study: treatment-emergent adverse events (safety set); type: in vivo, human; settings: 50 mg once daily 14 days co-initiated with ADT
Description: This was a randomized, double-blind, parallel-group, placebo-controlled study in adults with MDD. The diagnosis of MDD was made according to Structured Clinical Interview for Diagnostic and Statistical Manual of Mental Disorders, Fifth Edition (DSM-5) Clinical Trial Version (SCID 5-CT) performed by a qualified healthcare professional.
Participants were randomized to receive blinded Compound (1) 50 mg or placebo for administration each evening from Days 1 through 14. In addition, all participants received 1 of 2 classes of ADTs: a selective serotonin reuptake inhibitor (SSRI; sertraline, escitalopram, citalopram) or a serotonin-norepinephrine reuptake inhibitor (SNRI; duloxetine or desvenlafaxine) in an open-label manner from Day 1 through the end of the study. The ADT was administered per labeled prescribing information. The investigator assigned 1 of the 5 ADTs based on clinical standard of care; the participant must not have had been previously treated with the assigned ADT within the current depressive episode and must not have had taken any ADT within 30 days prior to Day 1 (or taken fluoxetine within 60 days prior to Day 1). Randomization was stratified by ADT class (SSRI or SNRI). […]

[3] = system: adults with MDD; settings: responders to first 14-day course of 50 mg who continued beyond Day 28; up to 1 year follow-up; cited from earlier work
[4] = system: patients with MDD or PPD; settings: cited from earlier work

For `CN(C)CCC[C@@]1(c2ccc(F)cc2)OCc2cc(C#N)ccc21` [escitalopram], the “tolerability on the gastrointestinal tract among antidepressants (in words)” value [1] is given as “least tolerated”.
For `C[C@@]1(O)CC[C@H]2[C@H](CC[C@@H]3[C@@H]2CC[C@]2(C)[C@@H](C(=O)Cn4cc(C#N)cn4)CC[C@@H]32)C1` [Compound (1), 1-(2-((3R,5R,8R,9R,10S,13S,14S,17S)-3-hydroxy-3,13-dimethylhexadecahydro-1H-cyclopenta[a]phenanthren-17-yl)-2-oxoethyl)-1H-pyrazole-4-carbonitrile], the “tolerability (in words)” value [2] is listed as “generally-well tolerated”, the “patients who received a total of 1 or 2 treatment courses” value [3] is listed as “approximately 80%” and the “onset of effect on depressive symptoms” value ([4]; 50 mg vs placebo, patients with MDD or PPD) is listed as “Day 2 or 3”. For the same compound, the minimally effective dose ([4]; previous Compound (1) studies in MDD) was 30 mg.
In the case of `CN[C@H]1CC[C@@H](c2ccc(Cl)c(Cl)c2)c2ccccc21` [sertraline], the “tolerability on the gastrointestinal tract among antidepressants (in words)” value [1] is given as “least tolerated”.
